Results from PubChem BioAssay AID248 (DTP/NCI, 2004).
Several values for one entry are separate records, joined by “and”; a condition that tells them apart may be missing. Equal entries are not always repeated. Toxic doses and inconclusive results are not listed. Cut-off read from the data, not from the text of the source: active = T/C of 150% or more; inactive = T/C below 125%. Square brackets hold non-standard residues; d marks the D form. Peptide text beside a SMILES is read from it. * marks the point of attachment. ξ: configuration not given here. ξF = NC(Cc1ccccc1)C(=O)O; Cbz = O=C(OCc1ccccc1)*

Tested on: L1210 leukemia ip in BDF1 mice, survival T/C
Experiment: NCI In Vivo Anticancer Drug Screen. Data for tumor model L1210 Leukemia (intraperitoneal) in B6D2F1 (BDF1) mice
Details: endpoint: mean survival time, higher = longer survival
How it was run: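 Value reflects the ratio of survival in compound-treated mice to survival in vehicle-treated controls, with both groups carrying the same transplanted tumor.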

[1] = dose: 100.0 mg/kg/injection, schedule: Q04DX003 (ip), vehicle: saline
[2] = dose: 100.0 mg/kg/injection, schedule: Q04DX003 (ip), vehicle: Klucel (hydroxypropylcellulose) (HPC)
[3] = dose: 200.0 mg/kg/injection, schedule: Q04DX003 (ip), vehicle: Klucel (hydroxypropylcellulose) (HPC)
[4] = dose: 100.0 mg/kg/injection, schedule: Q01DX009 (ip), vehicle: saline with Tween-80
[5] = dose: 100.0 mg/kg/injection, schedule: Q04DX003 (ip), vehicle: saline with Tween-80
[6] = dose: 200.0 mg/kg/injection, schedule: Q01DX009 (ip), vehicle: saline with Tween-80
[7] = dose: 200.0 mg/kg/injection, schedule: Q04DX003 (ip), vehicle: saline with Tween-80
[8] = dose: 400.0 mg/kg/injection, schedule: Q01DX009 (ip), vehicle: saline with Tween-80
[9] = dose: 100.0 mg/kg/injection, schedule: Q01DX001 (ip), vehicle: saline
[10] = dose: 400.0 mg/kg/injection, schedule: Q04DX003 (ip), vehicle: Klucel (hydroxypropylcellulose) (HPC)
[11] = dose: 50.0 mg/kg/injection, schedule: Q01DX001 (ip), vehicle: carboxymethylcellulose (CMC)
[12] = dose: 100.0 mg/kg/injection, schedule: Q01DX001 (ip), vehicle: carboxymethylcellulose (CMC)
[13] = dose: 200.0 mg/kg/injection, schedule: Q01DX001 (ip), vehicle: carboxymethylcellulose (CMC)
[14] = dose: 400.0 mg/kg/injection, schedule: Q01DX001 (ip), vehicle: carboxymethylcellulose (CMC)
[15] = dose: 100.0 mg/kg/injection, schedule: Q01DX009 (ip), vehicle: Klucel (hydroxypropylcellulose) (HPC)
[16] = dose: 200.0 mg/kg/injection, schedule: Q01DX009 (ip), vehicle: Klucel (hydroxypropylcellulose) (HPC)

Measured: T/C

CSC(c1ccc(Oc2ccccc2)cc1)=[N+]1CCCCC1
inactive: dose: 9.38 mg/kg/injection, schedule: Q01DX001 (ip), vehicle: steriod suspending solution 105 % of control | dose: 18.75 mg/kg/injection, schedule: Q01DX001 (ip), vehicle: steriod suspending solution 103 % of control | dose: 37.5 mg/kg/injection, schedule: Q01DX001 (ip), vehicle: steriod suspending solution 105 % of control

O=C(O)C(Nc1ccc(Nc2ccccc2)cc1)c1ccccc1 (stereo unspecified)
inactive: dose: 100.0 mg/kg/injection, schedule: Q04DX002 (ip), vehicle: Klucel (hydroxypropylcellulose) (HPC) 100 % of control | dose: 200.0 mg/kg/injection, schedule: Q04DX002 (ip), vehicle: Klucel (hydroxypropylcellulose) (HPC) 103 % of control | dose: 400.0 mg/kg/injection, schedule: Q04DX002 (ip), vehicle: Klucel (hydroxypropylcellulose) (HPC) 114 % of control

CCCCC1CCC(N)CC1 (stereo unspecified)
inactive: dose: 25.0 mg/kg/injection, schedule: Q04DX003 (ip), vehicle: saline 105 % of control | dose: 50.0 mg/kg/injection, schedule: Q04DX003 (ip), vehicle: saline 100 % of control | [1] 105 % of control

CC1=C(C)C(=O)OC1=O
inactive: [2] 97 % of control | [3] 98 % of control

COC1C(O)=C2C(=O)OC(C)(O)/C=C/C=C\C=C/C=C/C(c3ccccc3)NC(=O)/C=C/C=C/C=C/C=C/C2(C)C1O (stereo unspecified)
inactive: dose: 2.5 mg/kg/injection, schedule: Q01DX009 (ip), vehicle: saline 94 % of control | dose: 5.0 mg/kg/injection, schedule: Q01DX009 (ip), vehicle: saline 100 % of control | dose: 10.0 mg/kg/injection, schedule: Q01DX009 (ip), vehicle: saline 95 % of control

Cc1ccc(S(=O)(=O)OCC2COC(C(Cl)(Cl)Cl)O2)cc1 (stereo unspecified)
inactive: [4] 94 % of control | [5] 106 % of control | [6] 92 % of control | [7] 113 % of control | [8] 94 % of control | dose: 400.0 mg/kg/injection, schedule: Q04DX003 (ip), vehicle: saline with Tween-80 110 % of control

Cc1ccc(CN(C)C)c(C(O)c2ccccc2)c1 (stereo unspecified)
inactive: dose: 50.0 mg/kg/injection, schedule: Q01DX001 (ip), vehicle: saline 96 % of control | [9] 96 % of control

OCC1(CO)CCCCC1
inactive: [2] 105 % of control | [3] 109 % of control | [10] 105 % of control

CC(=O)CCCCCCCCCCC1CCC2OC12 (stereo unspecified)
inactive: dose: 100.0 mg/kg/injection, schedule: Q01DX001 (ip), vehicle: other 101 % of control | dose: 100.0 mg/kg/injection, schedule: Q01DX009 (sc), vehicle: other 109 % of control | dose: 100.0 mg/kg/injection, schedule: Q04DX003 (ip), vehicle: other 95 % of control | dose: 200.0 mg/kg/injection, schedule: Q01DX001 (ip), vehicle: other 115 % of control | dose: 200.0 mg/kg/injection, schedule: Q01DX009 (sc), vehicle: other 98 % of control | dose: 200.0 mg/kg/injection, schedule: Q04DX003 (ip), vehicle: other 94 % of control | dose: 400.0 mg/kg/injection, schedule: Q01DX001 (ip), vehicle: other 106 % of control | dose: 400.0 mg/kg/injection, schedule: Q01DX009 (sc), vehicle: other 97 % of control | dose: 400.0 mg/kg/injection, schedule: Q04DX003 (ip), vehicle: other 102 % of control

Nc1ncnc(N)c1NC(=O)c1ccc(Cl)c(Cl)c1
inactive: dose: 75.0 mg/kg/injection, schedule: Q01DX001 (ip), vehicle: saline with Tween-80 102 % of control | dose: 150.0 mg/kg/injection, schedule: Q01DX001 (ip), vehicle: saline with Tween-80 98 % of control | dose: 300.0 mg/kg/injection, schedule: Q01DX001 (ip), vehicle: saline with Tween-80 96 % of control

Cc1cc(N(CCCOS(C)(=O)=O)CCCOS(C)(=O)=O)ccc1C=Nc1ccc(-c2csc(COc3ccc(Br)cc3Br)n2)cc1
inactive: [4] 88 % of control | [6] 91 % of control | [8] 96 % of control

Cc1ccccc1OP(=O)(Oc1ccccc1C)Oc1ccccc1C
inactive: [11] 104 % of control | [12] 101 % of control | [13] 95 % of control | [14] 93 % of control

[CH3][Pb]([CH3])([CH3])[O]C(=O)C(F)(F)F
inactive: dose: 12.5 mg/kg/injection, schedule: Q04DX002 (ip), vehicle: saline 90 % of control

O=C(OC1(c2ccccc2)OC(=O)c2ccccc21)c1ccccc1C(=O)c1ccccc1 (stereo unspecified)
inactive: [5] 92 % of control | [7] 91 % of control

CC1C=NNC1=O (stereo unspecified)
inactive: [4] 124 % of control | dose: 100.0 mg/kg/injection, schedule: Q01DX009 (ip), vehicle: saline 115 % of control | [1] 104 % of control | dose: 200.0 mg/kg/injection, schedule: Q04DX003 (ip), vehicle: saline 112 % of control | dose: 300.0 mg/kg/injection, schedule: Q#B X027 (ip), vehicle: saline 89 % of control | dose: 400.0 mg/kg/injection, schedule: Q04DX003 (ip), vehicle: saline 109 % of control

O=S(=O)(c1cc(Cl)ccc1Cl)N1CCc2ccccc2C1
inactive: dose: 100.0 mg/kg/injection, schedule: Q04DX002 (ip), vehicle: gum acacia 104 % of control | dose: 200.0 mg/kg/injection, schedule: Q04DX002 (ip), vehicle: gum acacia 93 % of control | dose: 400.0 mg/kg/injection, schedule: Q04DX002 (ip), vehicle: gum acacia 93 % of control

COc1cc(NC(=O)Nc2cc(OC)c(OC)c(OC)c2)cc(OC)c1OC
inactive: [2] 96 % of control | [5] 93 % of control | [3] 98 % of control | [10] 91 % of control

COc1ccc(C(=O)/C=C/c2ccc(O)cc2)cc1
inactive: dose: 75.0 mg/kg/injection, schedule: Q04DX003 (ip), vehicle: saline 100 % of control | dose: 150.0 mg/kg/injection, schedule: Q04DX003 (ip), vehicle: saline 96 % of control | dose: 300.0 mg/kg/injection, schedule: Q04DX003 (ip), vehicle: saline 93 % of control

c1ccc(C(c2ccccc2)[Si](c2ccccc2)(c2ccccc2)c2ccccc2)cc1
inactive: dose: 100.0 mg/kg/injection, schedule: Q04DX002 (ip), vehicle: saline with Tween-80 90 % of control | dose: 200.0 mg/kg/injection, schedule: Q04DX002 (ip), vehicle: saline with Tween-80 97 % of control

N#Cc1cc(Cl)cn1O
inactive: dose: 100.0 mg/kg/injection, schedule: Q04DX002 (ip), vehicle: other 91 % of control | dose: 200.0 mg/kg/injection, schedule: Q04DX002 (ip), vehicle: other 99 % of control

Cc1ccnc(NC(c2ccccc2)c2ccc3cccnc3c2O)c1 (stereo unspecified)
inactive: [9] 103 % of control | dose: 200.0 mg/kg/injection, schedule: Q01DX001 (ip), vehicle: saline 95 % of control | dose: 400.0 mg/kg/injection, schedule: Q01DX001 (ip), vehicle: saline 86 % of control

CCCCN(C)/N=N/c1nc[nH]c1C(=O)NN
inactive: [11] 104 % of control | [12] 104 % of control | [13] 101 % of control | [14] 119 % of control

O=[N+]([O-])/C=C/C=C/c1ccco1
inactive: dose: 6.25 mg/kg/injection, schedule: Q04DX002 (ip), vehicle: saline with Tween-80 97 % of control | dose: 12.5 mg/kg/injection, schedule: Q04DX002 (ip), vehicle: saline with Tween-80 101 % of control | dose: 25.0 mg/kg/injection, schedule: Q04DX002 (ip), vehicle: saline with Tween-80 97 % of control and 90 % of control

O=C(CNC(=O)OCc1ccccc1)NC(Cc1ccccc1)C(=O)O (stereo not drawn) (Cbz-Gly-[ξF]-OH)
inactive: dose: 50.0 mg/kg/injection, schedule: Q01DX009 (ip), vehicle: Klucel (hydroxypropylcellulose) (HPC) 95 % of control | dose: 50.0 mg/kg/injection, schedule: Q04DX003 (ip), vehicle: Klucel (hydroxypropylcellulose) (HPC) 93 % of control | [15] 97 % of control | [2] 98 % of control | [16] 93 % of control | [3] 100 % of control

O=C(COc1ccccc1)NCCBr
inactive: [15] 96 % of control | [2] 110 % of control | dose: 133.0 mg/kg/injection, schedule: Q04DX003 (ip), vehicle: Klucel (hydroxypropylcellulose) (HPC) 98 % of control | [16] 102 % of control | [3] 98 % of control | dose: 300.0 mg/kg/injection, schedule: Q04DX003 (ip), vehicle: Klucel (hydroxypropylcellulose) (HPC) 98 % of control | dose: 400.0 mg/kg/injection, schedule: Q01DX009 (ip), vehicle: Klucel (hydroxypropylcellulose) (HPC) 95 % of control | [10] 101 % of control
